# According to patent US9321770B2, “Crystals of pyrroloquinolinequinone sodium salts” (MITSUBISHI GAS CHEMICAL COMPANY, INC., priority 2009, dated 2016):
# Counter-ions that a name gives are not always drawn.
# Assay: Thermal analysis: thermogravimetry (TG) and differential thermal analysis (DSC)
# Format: physicochemical
# Settings: under air flow; for thermal stability of the solids (thermal analysis): temperature increased at 10° C./minute
# Experimental: The obtained solids were subjected to thermogravimetry (TG) and differential thermal analysis (DSC) using Thermo plus EVO TG8120 manufactured by Rigaku Corporation. The temperature was increased under air flow at a rate of 10° C./minute.
temperature from which reduction in the weight was observed (10° C./minute),thermal stability of the solids (thermal analysis) (disodium salt),temperature up to which there was no change (except evaporation of water at about 100° C.) (10° C./minute) [°C],thermal stability of the solids (thermal analysis) (trisodium salt),Structure (SMILES)
about 30 °C,unstable,–,–,"O=C(O)c1cc(C(=O)O)c2c(n1)C(=O)C(=O)c1cc(C(=O)O)[nH]c1-2 [Comparative Example 1, PQQ disodium salt]"
–,low thermal stability,–,–,"O=C(O)c1cc(C(=O)O)c2c(n1)C(=O)C(=O)c1cc(C(=O)O)[nH]c1-2 [Comparative Example 2, PQQ disodium salt]"
–,very stable,270,–,"O=C(O)c1cc(C(=O)O)c2c(n1)C(=O)C(=O)c1cc(C(=O)O)[nH]c1-2 [Example 2, pyrroloquinoline quinone disodium salt]"
–,–,–,very high thermal stability,"O=C(O)c1cc(C(=O)O)c2c(n1)C(=O)C(=O)c1cc(C(=O)O)[nH]c1-2 [Example 4, pyrroloquinoline quinone trisodium salt]"
